Experimental findings from US20230247997A1 (published 2023) are described below.

SMILES strings stand for the structures.

As to `CCSc1nc(-c2ccncc2)ns1`, the melting point (as a rule, the temperature, or range, at which the solid turns liquid) is 49 to 50 °C.
In turn, `COc1cccc(-c2nsc(OC)n2)c1` returned a melting point of 73 to 75 °C.
Next, `COc1nc(-c2ccc(Cl)cc2)ns1`: 137 to 139 °C; `CCSc1nc(-c2ccc(F)cc2)ns1`: 35 to 36 °C.
Consider `COc1cccc(-c2nc(OC)nc(-c3cccc(OC)c3)n2)c1`, for which the melting point lay in the range of 126 to 128 °C.
Under `CCSc1nc(OC)ns1` stands 35 to 37 °C; under `COc1nc(-c2ccccc2)nc(-c2ccccc2)n1`, 109 to 111 °C.
Under `CCSC1=NC(=CC(N)=O)NS1` stands 140 to 142 °C.
Molecule `CCSc1nc(-c2cnccn2)ns1` yielded a melting point of 60 to 62 °C.
Molecule `COc1nc(-c2ccc(Cl)cc2)nc(-c2ccc(Cl)cc2)n1` registered a melting point of 192 to 194 °C.
Under `COc1nc(-c2ccc(F)cc2)nc(-c2ccc(F)cc2)n1` stands 173 to 174 °C; under `CCSc1nc(-c2ccc([N+](=O)[O-])cc2)ns1`, 103 to 104 °C.
Turning to `CCOC(=O)C=C1N=C(SCC)SN1`, the melting point lay in the range of 128 to 129 °C.
For `CSc1nc(-c2ccc(Cl)cc2)ns1`, the melting point lay within 105 to 107 °C.
Under `CCSc1nc(N(C)C)ns1` stands 116 to 118 °C; under `CCSc1nc(-c2ccc(Br)cc2)ns1`, 36 to 37 °C.
Under `CCSc1nc(-c2ccc(OC)cc2)ns1` stands 54 to 56 °C; under `COc1nc(-c2ccc([N+](=O)[O-])cc2)ns1`, 138 to 140 °C; under `CCSc1nc(-c2ccc(Cl)cc2)ns1`, 44 to 45 °C.
